Where only a bound is given, the exact number is not on record here.

Drawing on a melting point compilation (Tetko et al.; mined from patent text by program, amines drawn as free bases though some values may be those of a salt), this text covers melting point for 89 molecules.

Regarding `COc1ccc(C2(C#Cc3cccc(-c4nc(C)no4)c3)CCC(=O)CC2)cc1OC1CCCC1`, the melting point (commonly the temperature, or range, at which the solid turns liquid) was in the range of 88 to 91 °C. To `C=CC(=O)Nc1cccc2c1sc1c(Nc3cccc(Br)c3)c(C#N)cnc12` belongs 286 to 287 °C.

For `CCCc1nc2c(N)nc3ccccc3c2n1CCCCNS(C)(=O)=O`, the melting point lay in the range of 186 to 188 °C. As for `CCCc1nc(Cl)c(-c2ccc(C)cc2)c(NS(=O)(=O)c2ccc(C(C)(C)C)cc2)n1`, the figure is 138 to 139 °C; as for `N#CC(C#N)=CCOCCc1ccccc1`, 135 to 136 °C. Regarding `CC(C)c1cc(-c2ccc(F)cc2)c(OCc2ccccc2)c(C(C)C)c1`, the melting point is 65 to 67 °C. To `CC(=O)Oc1cc(N2C(=O)C=CC2=O)ccc1C(=O)O` belongs 110 to 119 °C; to `CC(=O)CC(=O)N[C@H]1CC(=O)OC1=O`, 132 to 135 °C. As for `COc1ccc(-c2[nH]c3ncnc(Nc4cccc(Cl)c4)c3c2C)cc1`, the figure is 265 to 268 °C; as for `CC1CC(=O)NN=C1c1ccc(N=CNc2ccc(C3=NNC(=O)CC3C)cc2)cc1` (centres undefined), 306 to 308 °C. As for `O=S(=O)(Cc1coc(/C=C/c2ccccc2)n1)c1ccc(CCCn2ccnc2)cc1`, the figure is 116 to 117 °C; as for `CC(=O)Nc1cccc(-c2ccc(C#N)c(=O)[nH]2)c1`, 326 to 328 °C; as for `COc1ccc(S(=O)(=O)C2(CCCC#Cc3ccc(C(=O)O)cc3C)SC(=O)NC2=O)cc1` (centres undefined), 182 to 184 °C. `O=S1(=O)NCN(C2CC2)c2cc(Br)cc(C(F)(F)F)c21` gave a melting point of 200 to 201 °C. `ClCc1c(Cl)ccc2cc(Cl)cnc12` yielded a melting point of 129 °C. For `CNC(=O)C(NC(=O)c1cn(C)nc1C(F)(F)F)C(/C=C/c1ccccc1)c1ccccc1` (centres undefined), the melting point lay within 192 to 194 °C. To `Cc1[nH]c(C(=O)NCCc2ccccn2)c(C)c1-c1nc2ccc(Oc3ccccc3)cc2[nH]1` belongs 290 to 293 °C; to `COc1c(C=CC(=O)c2ccc(O)cc2)ccc(O)c1C`, 185 to 187 °C; to `CCOC(=O)CCCCCCCn1cnc(-c2ccccc2)c1`, 56 to 57 °C. As for `CCOc1ccc(-c2nc(-c3cc(CNC)c(O)c(C(=O)O)c3)cs2)cc1OCC`, the figure is 271 to 273 °C. Turning to `CCCc1c(OCCCC#CC(=O)NCCCCc2cccnc2)ccc(C(C)=O)c1O`, the melting point lay in the range of 84 to 86 °C. As for `COc1cccc([C@]23CCN(C)C[C@@H]2CCC2(C3)OCCO2)c1` (relative stereo), the figure is 124 to 126 °C; as for `CN(C)CCOc1c(-c2ccc(S(C)(=O)=O)cc2)cnn(-c2cccc(Cl)c2)c1=O`, 110 to 113 °C. With `CCN(CC)c1ccc(C(=O)Cn2ncc(-c3ccc(S(C)(=O)=O)cc3)c(-c3ccc(F)cc3)c2=O)cc1`, the melting point was in the range of 105 to 108 °C. In turn, `O=C1c2ccccc2-c2[nH]nc(-c3ccncc3)c21` had a melting point of over 300 °C.

`O=C(Nc1ccc(-n2nc(C(F)(F)F)cc2C(F)(F)F)cc1)c1ccc([N+](=O)[O-])cc1` yielded a melting point of 185 to 188 °C.

Molecule `Cc1cc(O)c(C)c2c1C(C)CC(C)(C)O2` (centres undefined) gave a melting point of 88 to 89 °C. Molecule `CN(CCOc1ccc(C(N)=O)cc1)CCc1ccc(N)cc1` registered a melting point of 110 to 112 °C. As to `CCSc1cnc(Oc2ccc(Cl)c(Cl)c2)cc1C#N`, the melting point is 68 to 69 °C. For the molecule `COc1cccc(-n2cccn2)c1C#N`, the melting point lay in the range of 93 to 94 °C. As for `O=C(O)C1Cc2ccccc2C1`, the melting point stood at 130 °C. Take `COc1ccc(-c2ccc(C(=O)O)cc2)cc1-c1cccc([N+](=O)[O-])c1`: the melting point is 270 to 274 °C. Consider `O=C(Nc1ccc(C(F)(F)F)cc1)N[C@@H](Cc1ccccc1)C(=O)OCc1ccccc1`, for which the melting point is 155 to 157 °C. With `CCNC(=O)Nc1nc2cc(-c3cncnc3)cc(C(=O)NCC)n2n1`, the melting point lay within 317 to 321 °C. As for `CN1CCc2cc(-c3ccc4c(c3)CCN(CCN3CCCC3)C4=O)ccc2C1=O`, the figure is 225 to 226 °C; as for `Cc1nc(-n2ccc(OCc3ccc(F)cc3)cc2=O)sc1C(=O)NCc1cccnc1`, 231 to 233 °C; as for `O=[N+]([O-])c1cc(Br)cc2[nH]c(CCl)nc12`, 148 to 150 °C.

`Cc1cc(S)n2nc(C(=O)O)nc2n1` displayed a melting point of 215 to 217 °C. As for `O=C(O)C1CSC(c2ccccc2OCCCCO[N+](=O)[O-])N1` (centres undefined), the figure is 108 to 110 °C; as for `CC(C(=O)O)c1ccc2c(c1)Cc1cc([N+](=O)[O-])ccc1-2` (centres undefined), 206 to 209 °C. Molecule `CCOC(=O)Cn1cc(Cl)cnc1=O` had a melting point of 175 to 177 °C. Take `Nc1nnc(CCC2CCCCC2)s1`: the melting point lay in the range of 253 to 255 °C.

Turning to `COc1ccc2c(c1)CCC(=COC(=O)c1ccccc1)C2=O`, the melting point is 128 to 130 °C.

In turn, `CC1(C)CNc2cc(Br)ccc21` displayed a melting point of 100 to 102 °C. To `O=C(c1ccccc1)c1[nH]c2cc(Cl)ccc2c1NC(=O)C(F)(F)F` belongs 165 to 168 °C; to `N#Cc1cnc(NS(=O)(=O)c2cccc(Cl)c2Cl)c(OCc2cccnc2)n1`, 222 to 224 °C. As for `CS(=O)(=O)c1nccn1-c1nc(-c2ccc(Cl)cc2)c(CCC(=O)O)o1`, the figure is 166 to 167 °C; as for `O=c1nc(-c2cccc(Cl)c2)c2cc(C3(c4ccc(Cl)cc4)OCCO3)ccc2[nH]1`, 220 °C. As for `CN(c1cccc2cc(C3=NCC(CC(N)=O)S3)[nH]c12)S(=O)(=O)c1nccs1` (centres undefined), the figure is 216 to 218 °C; as for `O=c1ncc(Cl)cn1CCCl`, 167 to 168 °C; as for `COc1ccc(C(=O)C2CCN(CCCO)CC2)cc1`, 102 to 105 °C.

With `Cn1c(=O)c(-c2ccccc2)cc2cnc(N)nc21`, the melting point lay in the range of 250 to 255 °C. The molecule `Nc1nc2ccccc2c2c1ncn2CCCCCCNC(=O)c1ccccc1` displayed a melting point of 146 to 155 °C. As to `CCCCCCCCCCCCCCOC(=O)c1cc(C(=O)OCCCCCCCCCCCCCC)cc(N(CC(=O)O)CC(=O)O)c1`, the melting point lay within 84 to 87 °C. As for `COc1cc(C#CC(=O)O)cc(OC)c1OCc1ccccc1`, the figure is 115 to 116 °C; as for `Cc1cc2c(cc1C(F)(F)F)N(C(=O)Nc1cnc(OCc3ccccn3)c(C)c1)CC2`, 188 to 189 °C; as for `CCON=Cc1cc(-n2c(=O)n(C)c(=S)n(C)c2=O)ccc1Cl`, 139 to 141 °C. To `CCN(CC)CCCOc1ccc(C(=O)c2c(-c3ccc(OC)cc3)oc3ccccc23)cc1` belongs 102 to 110 °C. Turning to `CC(C)(C)c1ccc(Nc2nnc(Cc3ccc(O)nc3)c3ccccc23)cc1`, the melting point was in the range of 134 to 135 °C.

On to `O=[N+]([O-])c1ccc(OCC(COc2ccc([N+](=O)[O-])cc2)(COc2ccc([N+](=O)[O-])cc2)COc2ccc([N+](=O)[O-])cc2)cc1`, for which the melting point was 274 to 282 °C. As for `Cn1c(C(F)(F)F)cc(=O)n(-c2cc(O)c(Br)cc2F)c1=O`, the figure is 192 °C; as for `COc1ccc(C(=O)Nc2ccc(F)cc2)cc1NCc1cccs1`, 179 to 181 °C.

`O=C(CCc1ccncc1)NC(Cc1c[nH]c2ccccc12)C(=O)CCc1cc(C(F)(F)F)cc(C(F)(F)F)c1` (centres undefined) registered a melting point of 108 °C. In turn, `CCC(C(=O)O)c1ccc2c(c1)Cc1ccccc1S2` (centres undefined) showed a melting point of 74 to 77 °C. `CCOc1c(N2CCNCC2)c(F)cc2c(=O)c(C(=O)O)cn(C3CC3)c12` showed a melting point of 119 to 122 °C.

`CS(=O)(=O)c1ccc(C(CC2CCCC2)C(=O)Nc2ccc(Br)cn2)cc1[N+](=O)[O-]` (centres undefined) yielded a melting point of 80 to 83 °C. To `CCC(c1ccc(Br)cc1)N(O)C(N)=O` (centres undefined) belongs 139 to 141 °C; to `CCOC(=O)c1c(NC(=O)NCC(=O)OC)sc(C)c1C`, 151 °C; to `CC(C)CCCC(C)C1CCC2C3CC(Br)=C4CC(O)CCC4(C)C3CCC12C` (centres undefined), 155 °C. To `COc1ccc(NC(=O)c2ccc(C(C)(C)CN)cc2)cc1` belongs 139 to 140 °C; to `O=C(O)CNC(=O)CBr`, 90 to 91 °C; to `CC(=O)c1cnn(-c2ccnc3cc(Cl)ccc23)c1`, 190 to 192 °C. For the molecule `CSc1ccc(-c2nn(Cc3ccc(Cl)cc3Cl)c(=O)cc2-c2ccc(F)cc2)cc1`, the melting point was in the range of 139 to 140 °C. As for `CC(C)(C)n1c(Cl)c(-c2ccc(Oc3ccccc3)cc2)c2c(N)ncnc21`, the figure is 137 to 138 °C; as for `COc1ccc2c(c1)Cc1cc(CCC(C)=O)ccc1-2`, 100 to 101 °C; as for `CCCc1nc(C=NNC(=O)OCC)c[nH]1`, 180 to 182 °C. In the case of `Cc1cccc(C)c1N1CC(=O)N(c2c(C)cccc2C)CC1=O`, the melting point was 233 to 235 °C. To `CCN1CCc2c(Br)ccc([N+](=O)[O-])c2C1` belongs 52 to 53 °C. In the case of `COc1ccc(O)c(CNc2ccc(NC(=O)CC(C)(C)C)cc2)c1`, the melting point lay in the range of 126 to 129 °C. Consider `Cc1cccc2c1NC(=O)c1cccnc1N2`, for which the melting point was 233 to 235 °C. Molecule `CC(C)(C)OC(=O)NCc1cccc2c1CN(C1CCC(=O)NC1=O)C2=O` (centres undefined) came in with a melting point of 239 to 241 °C.

Turning to `Cc1nc(N2CCC(NCCC(F)(F)F)C2=O)sc1C(=O)NCc1ccc(F)cc1` (centres undefined), the melting point is 142 to 143 °C.

As to `Cc1c(CNCC2CCOCC2)[nH]c2ccc(NC(=O)c3ccc(OC[C@@H]4CCCO4)cc3)cc12`, the melting point fell in the range of 146 to 147 °C.

`CC(C)C[C@H](NC(=O)OCc1ccccc1)C(=O)N[C@@H](Cc1ccccc1)C(=O)CSCc1ccc(Cl)s1`: the melting point is 105 to 107 °C. To `C=CCOC(=O)Nc1cc(-c2cccc(Cl)c2)sc1C(=O)OC` belongs 101 to 103 °C; to `CC(C)(C)c1nc2cc(N3CCCC3)c(N)cc2s1`, 130 to 132 °C. Turning to `CCOC(=O)NN=C(C)C1(N)C(O)CC2C3CC=C4CC(OC(C)=O)CCC4(C)C3CCC21C` (centres undefined), the melting point fell in the range of 287 to 289 °C. To `COC(=O)c1cccc2c1nc(-c1c(F)cccc1F)n2Cc1c(F)cccc1F` belongs 184 to 186 °C; to `O=[N+]([O-])c1ccc(Cl)cc1-c1nc2ccccc2o1`, 130 to 132 °C.
